# System: MV-4-11 cells
# Assay: Gene expression microarray analysis (Affymetrix PrimeView) and GSEA
# Assay type: cell-based, human
# Set-up: RFU PODN (11730768_x_at) / Fold change /veh PODN (11730768_x_at) / RFU LINC00158 (11744669_a_at) / Fold change /veh LINC00158 (11744669_a_at) / RFU DUSP10 (11751237_a_at) / Fold change /veh DUSP10 (11751237_a_at) / RFU ID3 (11757404_x_at) / Fold change /veh ID3 (11757404_x_at) / RFU PLEKHG5 (11737974_s_at) / Fold change /veh PLEKHG5 (11737974_s_at) / RFU LRRC4B (11730491_at) / Fold change /veh LRRC4B (11730491_at) / RFU GIMAP4 (11747438_a_at) / Fold change /veh GIMAP4 (11747438_a_at) / RFU KRT8 (11758183_x_at) / Fold change /veh KRT8 (11758183_x_at) / RFU CNN1 (11734310_a_at) / Fold change /veh CNN1 (11734310_a_at) / RFU VPS37D (11726825_at) / Fold change /veh VPS37D (11726825_at) / RFU C10orf10 (11716522_x_at) / Fold change /veh C10orf10 (11716522_x_at) / RFU KIR2DL2 /// KIR2DL4 /// KIR2DL5A /// KIR2DL5B /// KIR2DS1 /// KIR2DS2 /// KIR2DS3 /// KIR2DS4 /// KIR3DL3 /// KIR3DL3 /// KIR3DS1 (11738374_at) / Fold change /veh KIR2DL2 /// KIR2DL4 /// KIR2DL5A /// KIR2DL5B /// KIR2DS1 /// KIR2DS2 /// KIR2DS3 /// KIR2DS4 /// KIR3DL3 /// KIR3DL3 /// KIR3DS1 (11738374_at) / RFU C1QL1 (11718748_at) / Fold change /veh C1QL1 (11718748_at) / RFU TMPRSS4 (11747572_a_at) / Fold change /veh TMPRSS4 (11747572_a_at) / RFU HAMP (11756126_x_at) / Fold change /veh HAMP (11756126_x_at) / RFU RNFT2 (11725882_a_at) / Fold change /veh RNFT2 (11725882_a_at) / RFU NR4A2 (11747474_a_at) / Fold change /veh NR4A2 (11747474_a_at) / RFU ABCC12 (11746883_a_at) / Fold change /veh ABCC12 (11746883_a_at) / RFU TMEM136 (11760407_x_at) / Fold change /veh TMEM136 (11760407_x_at) / RFU CLDN22 /// WWC2 (11732394_at) / Fold change /veh CLDN22 /// WWC2 (11732394_at) / RFU HLA-DPB1 (11760878_x_at) / Fold change /veh HLA-DPB1 (11760878_x_at) / RFU SPINT1 (11716480_a_at) / Fold change /veh SPINT1 (11716480_a_at) / RFU GAP43 (11754022_s_at) / Fold change /veh GAP43 (11754022_s_at) / RFU A4GNT (11735810_at) / Fold change /veh A4GNT (11735810_at) / RFU PRB3 (11715151_x_at) / Fold change /veh PRB3 (11715151_x_at) / RFU TUBB4B (11761932_at) / Fold change /veh TUBB4B (11761932_at) / RFU CAPN14 (11732068_a_at) / Fold change /veh CAPN14 (11732068_a_at) / RFU TMCC2 (11721928_a_at) / Fold change /veh TMCC2 (11721928_a_at) / RFU IRGQ (11745062_a_at) / Fold change /veh IRGQ (11745062_a_at) / RFU FAM174B (11720279_a_at) / Fold change /veh FAM174B (11720279_a_at) / RFU TMPRSS4 (11748680_a_at) / Fold change /veh TMPRSS4 (11748680_a_at) / RFU FAM212B (11763350_a_at) / Fold change /veh FAM212B (11763350_a_at) / RFU PLEKHG5 (11743358_a_at) / Fold change /veh PLEKHG5 (11743358_a_at) / RFU ZSCAN30 (11745921_a_at) / Fold change /veh ZSCAN30 (11745921_a_at) / RFU CMKLR1 (11741424_a_at) / Fold change /veh CMKLR1 (11741424_a_at) / RFU LOC101060620 /// MAPK8IP1 (11723275_at) / Fold change /veh LOC101060620 /// MAPK8IP1 (11723275_at) / RFU SPTSSB (11747773_x_at) / Fold change /veh SPTSSB (11747773_x_at) / RFU PRSS12 (11739890_at) / Fold change /veh PRSS12 (11739890_at) / RFU BIN1 (11741810_x_at) / Fold change /veh BIN1 (11741810_x_at) / RFU WNT11 (11732464_a_at) / Fold change /veh WNT11 (11732464_a_at) / RFU C10orf10 (11716521_a_at) / Fold change /veh C10orf10 (11716521_a_at) / RFU C5orf56 (11738089_at) / Fold change /veh C5orf56 (11738089_at) / RFU CYB561 (11721691_x_at) / Fold change /veh CYB561 (11721691_x_at) / RFU ANKRD19P (11752326_a_at) / Fold change /veh ANKRD19P (11752326_a_at) / RFU OR2T12 /// OR2T33 /// OR2T8 (11738714_s_at) / Fold change /veh OR2T12 /// OR2T33 /// OR2T8 (11738714_s_at) / RFU VCAN (11748164_a_at) / Fold change /veh VCAN (11748164_a_at) / RFU JSRP1 (11732532_at) / Fold change /veh JSRP1 (11732532_at) / RFU KRTAP10-11 (11738290_x_at) / Fold change /veh KRTAP10-11 (11738290_x_at) / RFU MYO3A (11730013_a_at) / Fold change /veh MYO3A (11730013_a_at) / RFU EBF3 (11725865_a_at) / Fold change /veh EBF3 (11725865_a_at) / RFU CAMK2N1 (11719241_x_at) / Fold change /veh CAMK2N1 (11719241_x_at) / RFU C5orf56 (11738088_a_at) / Fold change /veh C5orf56 (11738088_a_at) / RFU OLFML3 (11715873_a_at) / Fold change /veh OLFML3 (11715873_a_at) / RFU LOC100653217 /// NTM (11731650_a_at) / Fold change /veh LOC100653217 /// NTM (11731650_a_at) / RFU MAPK11 (11762145_a_at) / Fold change /veh MAPK11 (11762145_a_at) / RFU FIZ1 (11724087_x_at) / Fold change /veh FIZ1 (11724087_x_at) / RFU OASL (11726364_x_at) / Fold change /veh OASL (11726364_x_at) / RFU SOX15 (11748057_x_at) / Fold change /veh SOX15 (11748057_x_at) / RFU CD79A (11719716_a_at) / Fold change /veh CD79A (11719716_a_at) / RFU HIST1H1D (11736915_at) / Fold change /veh HIST1H1D (11736915_at) / RFU CASKIN2 (11723855_a_at) / Fold change /veh CASKIN2 (11723855_a_at) / RFU LOC730098 (11760151_x_at) / Fold change /veh LOC730098 (11760151_x_at) / RFU OR4N2 (11742367_at) / Fold change /veh OR4N2 (11742367_at) / RFU PRRT2 (11749266_a_at) / Fold change /veh PRRT2 (11749266_a_at) / RFU SNX32 (11753110_a_at) / Fold change /veh SNX32 (11753110_a_at) / RFU CDHR5 (11726645_a_at) / Fold change /veh CDHR5 (11726645_a_at) / RFU RCAN1 (11760418_a_at) / Fold change /veh RCAN1 (11760418_a_at) / RFU FAM167A (11723789_a_at) / Fold change /veh FAM167A (11723789_a_at) / RFU FAM26E (11764081_at) / Fold change /veh FAM26E (11764081_at) / RFU ISYNA1 (11749810_s_at) / Fold change /veh ISYNA1 (11749810_s_at) / RFU ACY1 (11761880_at) / Fold change /veh ACY1 (11761880_at) / RFU 11764098_at / Fold change /veh 11764098_at / RFU SAMD14 (11745864_x_at) / Fold change /veh SAMD14 (11745864_x_at) / RFU NPB (11741838_a_at) / Fold change /veh NPB (11741838_a_at) / RFU TMPRSS6 (11731388_a_at) / Fold change /veh TMPRSS6 (11731388_a_at) / RFU KRTAP10-2 (11738614_at) / Fold change /veh KRTAP10-2 (11738614_at) / RFU ARHGAP8 /// PRR5-ARHGAP8 (11727945_x_at) / Fold change /veh ARHGAP8 /// PRR5-ARHGAP8 (11727945_x_at) / RFU KRTAP5-7 /// NADSYN1 (11734609_at) / Fold change /veh KRTAP5-7 /// NADSYN1 (11734609_at) / RFU RASL12 (11751679_a_at) / Fold change /veh RASL12 (11751679_a_at) / RFU CDKN2B (11736163_a_at) / Fold change /veh CDKN2B (11736163_a_at) / RFU PRF1 (11729649_at) / Fold change /veh PRF1 (11729649_at) / RFU, ZNF638 /// ZNF638-IT1 / Fold change vs veh, ZNF638 /// ZNF638-IT1 / RFU, PANK3 / Fold change vs veh, PANK3 / RFU, SH3YL1 / Fold change vs veh, SH3YL1 / RFU, ZEB2 / Fold change vs veh, ZEB2 / RFU, NRIP1 / Fold change vs veh, NRIP1 / RFU, PTTG1IP / Fold change vs veh, PTTG1IP / RFU, CAPN2 / Fold change vs veh, CAPN2 / RFU, MED14 / Fold change vs veh, MED14 / RFU, SNORA58 / Fold change vs veh, SNORA58 / RFU, C1orf63 / Fold change vs veh, C1orf63 / RFU, LRRFIP1 / Fold change vs veh, LRRFIP1 / RFU, NDUFAF7 / Fold change vs veh, NDUFAF7 / RFU, SLC12A2 / Fold change vs veh, SLC12A2 / RFU, IBTK / Fold change vs veh, IBTK / RFU, ESF1 / Fold change vs veh, ESF1 / Fold change vs veh, TMEM50B / RFU, TAOK1 / Fold change vs veh, TAOK1 / RFU, ACBD3 / Fold change vs veh, ACBD3 / RFU, TMA16 / Fold change vs veh, TMA16 / RFU, RWDD3 / Fold change vs veh, RWDD3 / RFU, BCAT1 / Fold change vs veh, BCAT1 / RFU, EDEM3 / Fold change vs veh, EDEM3 / RFU, TMEM33 / Fold change vs veh, TMEM33 / RFU, WDR75 / Fold change vs veh, WDR75 / RFU, AHCTF1 / Fold change vs veh, AHCTF1 / RFU, TFRC / Fold change vs veh, TFRC / RFU, ZDHHC17 / Fold change vs veh, ZDHHC17 / RFU, NOM1 / Fold change vs veh, NOM1 / RFU, ARL8B / Fold change vs veh, ARL8B / RFU, ZBTB11 / Fold change vs veh, ZBTB11 / RFU, TAMM41 / Fold change vs veh, TAMM41 / RFU, KIAA1704 /// LOC100996395 / Fold change vs veh, KIAA1704 /// LOC100996395 / RFU, ING1 / Fold change vs veh, ING1 / RFU, TRMT61B / Fold change vs veh, TRMT61B / RFU, FUBP3 / Fold change vs veh, FUBP3 / RFU, TP53 / Fold change vs veh, TP53 / RFU, TNKS2 / Fold change vs veh, TNKS2 / RFU, ZFP14 / Fold change vs veh, ZFP14 / RFU, ACTR2 / Fold change vs veh, ACTR2 / RFU, PPP3R1 / Fold change vs veh, PPP3R1 / RFU, PIK3R1 / Fold change vs veh, PIK3R1 / RFU, HNRNPA1 / Fold change vs veh, HNRNPA1 / RFU, RNF170 / Fold change vs veh, RNF170 / RFU, ZNF28 / Fold change vs veh, ZNF28 / RFU, RNGTT / Fold change vs veh, RNGTT / RFU, OGT / Fold change vs veh, OGT / RFU, BRD1 / Fold change vs veh, BRD1 / RFU, MARS / Fold change vs veh, MARS / RFU, ZNF655 / Fold change vs veh, ZNF655 / RFU, FAHD1 / Fold change vs veh, FAHD1 / RFU, BDP1 / Fold change vs veh, BDP1 / RFU, LRRCC1 / Fold change vs veh, LRRCC1 / RFU, ARID1A / Fold change vs veh, ARID1A / RFU, ZNF146 / Fold change vs veh, ZNF146 / RFU, ZNF330 / Fold change vs veh, ZNF330 / RFU, GPN3 / Fold change vs veh, GPN3 / RFU, C9orf123 / Fold change vs veh, C9orf123 / RFU, N4BP2L2 / Fold change vs veh, N4BP2L2 / RFU, ARFIP1 / Fold change vs veh, ARFIP1 / RFU, FAM179B / Fold change vs veh, FAM179B / RFU, BCL10 / Fold change vs veh, BCL10 / RFU, UHRF1BP1L / Fold change vs veh, UHRF1BP1L / RFU, BET1 / Fold change vs veh, BET1 / RFU, CNOT2 / Fold change vs veh, CNOT2 / RFU, ZNF268 / Fold change vs veh, ZNF268 / Fold change vs veh, ZNF507 / RFU, DGCR2 / Fold change vs veh, DGCR2 / RFU, WDSUB1 / Fold change vs veh, WDSUB1 / Fold change vs veh, HSP90B1 /// MIR3652 / RFU, ADSS / Fold change vs veh, ADSS / RFU, GK / Fold change vs veh, GK / RFU, ZNF148 / Fold change vs veh, ZNF148 / RFU, TAF9 / Fold change vs veh, TAF9 / RFU, SLC1A5 / Fold change vs veh, SLC1A5 / RFU, SLMO2 / Fold change vs veh, SLMO2 / RFU, ABCC4 / Fold change vs veh, ABCC4 / RFU, LOC101060439 /// RAP1B / Fold change vs veh, LOC101060439 /// RAP1B / RFU, RFX7 / Fold change vs veh, RFX7 / RFU, GTPBP10 / Fold change vs veh, GTPBP10 / RFU, CNEP1R1 / Fold change vs veh, CNEP1R1 / RFU, BIVM-ERCC5 /// ERCC5 / Fold change vs veh, BIVM-ERCC5 /// ERCC5 / RFU, ILF3 / Fold change vs veh, ILF3 / RFU 11762660_at / Fold change /veh 11762660_at / RFU VCAN (11757783_s_at) / Fold change /veh VCAN (11757783_s_at) / RFU DDX43 (11728927_at) / Fold change /veh DDX43 (11728927_at) / RFU KRT8 (11758188_x_at) / Fold change /veh KRT8 (11758188_x_at) / RFU NKD1 (11759106_at) / Fold change /veh NKD1 (11759106_at) / RFU SRD5A1 (11742802_a_at) / Fold change /veh SRD5A1 (11742802_a_at) / RFU TPSAB1 /// TPSB2 (11721975_s_at) / Fold change /veh TPSAB1 /// TPSB2 (11721975_s_at) / RFU GSTM3 (11746129_a_at) / Fold change /veh GSTM3 (11746129_a_at) / RFU IL23R (11737362_x_at) / Fold change /veh IL23R (11737362_x_at) / RFU TMEM51 (11727254_a_at) / Fold change /veh TMEM51 (11727254_a_at) / RFU PIWIL2 (11732686_x_at) / Fold change /veh PIWIL2 (11732686_x_at) / RFU ORM1 (11744905_x_at) / Fold change /veh ORM1 (11744905_x_at) / RFU CCDC152 (11743942_at) / Fold change /veh CCDC152 (11743942_at) / RFU ECM1 (11717891_a_at) / Fold change /veh ECM1 (11717891_a_at) / RFU IL23R (11748794_a_at) / Fold change /veh IL23R (11748794_a_at) / RFU TNFAIP8L3 (11732012_x_at) / Fold change /veh TNFAIP8L3 (11732012_x_at) / RFU MBOAT4 (11741988_at) / Fold change /veh MBOAT4 (11741988_at) / RFU 11764193_at / Fold change /veh 11764193_at / RFU TMEM53 (11763286_at) / Fold change /veh TMEM53 (11763286_at) / RFU MAGEB2 (11727129_at) / Fold change /veh MAGEB2 (11727129_at) / RFU TMEM200A (11744735_a_at) / Fold change /veh TMEM200A (11744735_a_at) / RFU CCDC152 (11751479_a_at) / Fold change /veh CCDC152 (11751479_a_at) / RFU FAM211A (11726209_a_at) / Fold change /veh FAM211A (11726209_a_at) / RFU RGS16 (11746705_a_at) / Fold change /veh RGS16 (11746705_a_at) / RFU VCAN (11755009_s_at) / Fold change /veh VCAN (11755009_s_at) / RFU RHOB (11743442_s_at) / Fold change /veh RHOB (11743442_s_at) / RFU RGS16 (11720943_a_at) / Fold change /veh RGS16 (11720943_a_at) / RFU RGS16 (11720944_at) / Fold change /veh RGS16 (11720944_at) / RFU, VPS4B / Fold change vs veh, VPS4B / RFU, CREB1 / Fold change vs veh, CREB1 / RFU, DNAJC13 / Fold change vs veh, DNAJC13 / RFU, GNAQ / Fold change vs veh, GNAQ / RFU, CDK5R1 / Fold change vs veh, CDK5R1 / RFU, ZRANB3 / Fold change vs veh, ZRANB3 / RFU, CUL4A / Fold change vs veh, CUL4A / RFU, CCNY / Fold change vs veh, CCNY / RFU, UFL1 / Fold change vs veh, UFL1 / RFU, COG3 / Fold change vs veh, COG3 / RFU, DIAPH2 / Fold change vs veh, DIAPH2 / RFU, SKA2 / Fold change vs veh, SKA2 / RFU, AFF3 / Fold change vs veh, AFF3 / RFU, LMF1 / Fold change vs veh, LMF1 / RFU, IPO11 / Fold change vs veh, IPO11 / RFU, DFFB / Fold change vs veh, DFFB / RFU, FOXP1 / Fold change vs veh, FOXP1 / RFU, CARD8 / Fold change vs veh, CARD8 / RFU, STRN3 / Fold change vs veh, STRN3 / RFU, ADK / Fold change vs veh, ADK / RFU, RASSF2 / Fold change vs veh, RASSF2 / RFU, WIPF1 / Fold change vs veh, WIPF1 / RFU, LARP1B / Fold change vs veh, LARP1B / RFU, RASA1 / Fold change vs veh, RASA1 / RFU, RB1 / Fold change vs veh, RB1 / RFU, PPFIA1 / Fold change vs veh, PPFIA1 / RFU, MAT2A / Fold change vs veh, MAT2A / RFU, CCT5 / Fold change vs veh, CCT5 / RFU, WDR92 / Fold change vs veh, WDR92 / RFU, CUX1 / Fold change vs veh, CUX1 / RFU, TTC7A / Fold change vs veh, TTC7A / RFU, TMEM135 / Fold change vs veh, TMEM135 / RFU, DEPTOR / Fold change vs veh, DEPTOR / RFU, CPM / Fold change vs veh, CPM / RFU, DNAJB6 / Fold change vs veh, DNAJB6 / RFU, CACNA2D3 / Fold change vs veh, CACNA2D3 / RFU, DTX4 / Fold change vs veh, DTX4 / RFU, TFCP2 / Fold change vs veh, TFCP2 / RFU, GMCL1 /// GMCL1P1 / Fold change vs veh, GMCL1 /// GMCL1P1 / RFU, AEBP2 / Fold change vs veh, AEBP2 / RFU, SNHG1 /// SNORD22 /// SNORD25 /// SNORD26 /// SNORD27 /// SNORD28 /// SNORD29 /// SNORD31 / Fold change vs veh, SNHG1 /// SNORD22 /// SNORD25 /// SNORD26 /// SNORD27 /// SNORD28 /// SNORD29 /// SNORD31 / Fold change (Aza/veh), C12orf56 (ProbeSet 11735607_a_at) / Fold change (ACY-1035/veh), C12orf56 (ProbeSet 11735607_a_at) / Fold change (Aza/veh), FGFR1OP (ProbeSet 11751329_s_at) / Fold change (ACY-1035/veh), FGFR1OP (ProbeSet 11751329_s_at) / Fold change (Aza/veh), VPS36 (ProbeSet 11739960_a_at) / Fold change (ACY-1035/veh), VPS36 (ProbeSet 11739960_a_at) / RFU SYPL1 (11715823_x_at) / Fold change /veh SYPL1 (11715823_x_at) / RFU IGFBP7 (11715501_s_at) / Fold change /veh IGFBP7 (11715501_s_at) / RFU REEP3 (11722064_at) / Fold change /veh REEP3 (11722064_at) / RFU IGLL1 (11728026_x_at) / Fold change /veh IGLL1 (11728026_x_at): dose or concentration left out as unconfirmed
# Conditions: ProbeSet 11729384_s_at; LIST D
smiles,measurement,value
Nc1ccc(-c2cccs2)cc1NC(=O)c1ccc2c(c1)cc(C1CC1)n2CCN1CCOCC1 [ACY-1035],"RFU, CCNY",178.51 RFU

# From paper PMC5218480 (PLoS ONE, 2017)
